Source: ChEMBL document CHEMBL1158987, “Isolation and structure determination of novel phosphatidylinositol kinase inhibitors, echiguanines A and B, from Streptomyces sp” (J Nat Prod, 1991)
≈ marks a conversion by molar mass, not a printed value.

Legend:
[1] = Inhibition of phosphatidylinositol 4-kinase in human A431 cell membrane by liquid scintillation counting; format: cell-based; details: a-431
[2] = Toxicity in ip dosed mouse; format: organism-based; details: in vivo

IC50 [1] [µg/mL] | Structure (SMILES) | LD50 [2] [mg/kg]
> 100 | Nc1[nH]cnc2ncnc1-2 [ADENINE] | –
35 (≈ 233 µM) | Nc1nc2c(c(=O)[nH]1)CC=N2 [7-DEAZAGUANINE] | –
0.25 (≈ 0.873 µM) | O=c1c(-c2ccc(O)c(O)c2)coc2cc(O)cc(O)c12 [OROBOL] | –
> 100 | Nc1nc2[nH]cnc2c(=O)[nH]1 [GUANINE] | –
> 100 | Nc1nc(=O)[nH]c2nc[nH]c12 [ISOGUANINE] | –
0.45 (≈ 3.26 µM) | O=Cc1cccc(O)c1O | –

Structure (SMILES) | IC50 [1] [µg/mL] | LD50 [2] [mg/kg]
O=c1[nH]cnc2nc[nH]c12 [HYPOXANTHINE] | > 100 | –
NCCCNC(=O)c1c[nH]c2nc(N)nc(O)c12 [ECHIGUANINE B] | 0.11 (≈ 0.44 µM) | > 100
N#Cc1cn([C@@H]2O[C@H](CO)[C@@H](O)[C@H]2O)c2ncnc(N)c12 [TOYOCAMYCIN] | 3.3 (≈ 11.3 µM) | –
N=C(N)CCNC(=O)c1c[nH]c2nc(N)nc(O)c12 [ECHIGUANINE A] | 0.04 (≈ 0.152 µM) | > 100
O=c1c(O)c(-c2ccc(O)c(O)c2)oc2cc(O)cc(O)c12 [QUERCETIN] | 1.8 (≈ 5.96 µM) | –
